{"source": "patent US20250221977A1", "about": "“NOVEL BENZOTHIOPHENE DERIVATIVE AND USE THEREOF AS BET INHIBITOR” (BENOBIO CO., LTD., priority 2022, published 2025)", "system": "HPAF, a human pancreatic cancer cell line", "assay": "In vitro anticancer efficacy test on human pancreatic cancer cell line (CCK cell viability assay)", "format": "cell-based", "settings": "for IC50: HPAF cells, 96 hours, CCK assay", "description": "HPAF, a human pancreatic cancer cell line, was dispensed in a 96-well plate and incubated in a 37° C., 5% CO2 incubator for 24 hours. Thereafter, 10 μl of Examples and Comparative Examples were treated to each well at different concentrations (1 nM, 0.01 μM, 0.1 μM, 1 μM, 10 μM, 100 μM) and incubated for 96 hours. Each well was treated with a reagent using a CCK assay kit (Dong-In LS, D Plus CCK cell viability assay kit), and reacted in a 37° C., 5% CO2 incubator for 30 minutes to 1 hour, and then the absorbance was measured at a wavelength of 450 nm using a microplate reader (SpectraMax i3x, USA). The IC50 value was confirmed using the GraphPad Prism 5 (GraphPad Software, Inc., San Diego, USA) program from the results obtained at this time.", "data": [{"smiles": "Cc1sc2c(c1C)C(c1ccc(Cl)cc1)=N[C@@H](CC(=O)OC(C)(C)C)c1nnc(C)n1-2", "note": "[JQ1, reference compound]", "values": [{"measurement": "IC50", "value": 2.3, "unit": "µM"}]}, {"smiles": "CNC(=O)CCN(Cc1ccc(C(F)F)cc1)C(=O)c1cc2c(OC)ccc(-c3ccc(=O)n(C)c3)c2s1", "note": "[BBC1115, N-[[4-(difluoromethyl)phenyl]methyl]-4-methoxy-N-[3-(methylamino)-3-oxo-propyl]-7-(1-methyl-6-oxo-3-pyridyl)benzothiophene-2-carboxamide]", "values": [{"measurement": "IC50", "setting": "Homo sapiens, Pancreatic cancer cell", "value": 0.13, "unit": "µM"}, {"measurement": "IC50 value for HPAF, times lower than Comparative Example 1", "setting": "versus JQ1", "value": "about 17.69 times"}]}]}
